The text below walks through data of EP0427484B1, “Novel benzoxazolone compounds and the use thereof as microbicides” (ROHM AND HAAS COMPANY, priority 1989, dated 1991).

Assay [1] concerns Aspergillus niger (A. niger) - ATCC 6275. As to the kind of experiment: MIC test, broth two-fold serial dilution. The assay is classed as cell-based. The note with it: ATCC6275, complete inhibition of growth, read-out: MIC (ppm) for each compound. The protocol: (§1) Activity against certain bacteria and fungi was determined using a minimum inhibitory concentration (MIC) test, which establishes the minimum concentration of test compound required to achieve complete inhibition of growth of the test organism. An MIC value was obtained using a broth, two-fold serial dilution test performed as follows: […] A volume of the stock solution was dispensed into culture media to give an initial starting test concentration of 500 ppm compound. When the test was ready to be done, each vessel in the dilution series, except the first vessel, contained an equal volume of compound free broth. The first vessel contained twice the volume of broth with the starting concentration of test compound. One half of the broth from the first vessel was transferred to the second vessel. After being mixed, one half the resulting volume was removed from the second vessel and transferred to the third vessel. The entire cycle was repeated sufficiently to give a series of concentrations amounting to 500, 250, 125, 63, 31, 16, 8, and 4 ppm (or 25, 12.5, 6.2, 3.1, 1.6, 0.8, 0.4, 0.2), respectively. Each vessel was then inoculated with a cell suspension of the appropriate test organism. Bacteria were grown in broth and fungi on agar […] for a time and at a temperature appropriate to the species being tested. At the end of the growth period, the bacteria containing broth was vortexed to disperse the cells. In the case of fungi, the spores were harvested by pipetting water onto the slant and dislodging the spores with a sterile loop. The cell/spore suspension was standardized by controlling incubation time, temperature, and the volume of the diluent. The suspension was then used to inoculate the vessels containing the broth compound. The vessels were then incubated at the appropriate temperature. Alter the incubation, the vessels were examined for growth/no growth. The minimum inhibitory concentration (MIC) is defined as the lowest concentration of compound that results in complete inhibition of growth of the test organism. The organisms tested were bacteria Pseudomonas fluorescens (Ps.fl) - ATCC 948, Pseudomonas aeruginosa (Ps.ae) - ATCC 15442, Escherichia Coli (E.coli) - ATCC 11229, and Staphylococcus aureus (S.aur) - ATCC 6538; and fungi Aspergillus niger (A. niger) - ATCC 6275, Penicillium funiculosum (P. fun.) - ATCC 11797, Cladosporium resinae (A. res.) - ATCC 52833, Aureobasidium pullulans (A. pull.) - ATCC 9248, Cloeophyllum trabeuor (G. trab.) - ATCC 11539; and two yeasts Sacharomyces […].) - ATCC 560, and Rhorotorularubra (R. rubra) - ATCC 2503.

Assay [2] deals with Aureobasidium pullulans (A. pull.) - ATCC 9248. Briefly: MIC test, broth two-fold serial dilution. The assay is classed as cell-based. Particulars: ATCC9248, complete inhibition of growth, read-out: MIC (ppm) for each compound. The protocol:
as §1

Assay [3] concerns Cladosporium resinae (A. res.) - ATCC 52833. Briefly: MIC test, broth two-fold serial dilution. The assay is classed as cell-based. Particulars: Amorphotheca resinae, ATCC52833; Cl.res.; complete inhibition of growth; read-out: MIC (ppm) for each compound. As to the method: as §1
Assay [4] has as its system Cloeophyllum trabeuor (G. trab.) - ATCC 11539. As to the kind of experiment: MIC test, broth two-fold serial dilution. Particulars: complete inhibition of growth, read-out: MIC (ppm) for each compound. The assay is classed as cell-based. As to the method:
as §1

The test system of assay [5] is Escherichia Coli (E.coli) - ATCC 11229. As to the kind of experiment: MIC test, broth two-fold serial dilution. The assay is classed as cell-based. Particulars: ATCC11229, complete inhibition of growth, read-out: MIC (ppm) for each compound. The protocol:
as §1

Assay [6] relates to Penicillium funiculosum (P. fun.) - ATCC 11797. As to the kind of experiment: MIC test, broth two-fold serial dilution. The assay is classed as cell-based. Particulars: Talaromyces funiculosus, ATCC11797, complete inhibition of growth, read-out: MIC (ppm) for each compound. As to the method:
as §1

Assay [7] concerns Pseudomonas aeruginosa (Ps.ae) - ATCC 15442. Briefly: MIC test, broth two-fold serial dilution. Particulars: ATCC15442, complete inhibition of growth, read-out: MIC (ppm) for each compound. Type of assay: cell-based. As to the method:
as §1

Assay [8] concerns Pseudomonas fluorescens (Ps.fl) - ATCC 948. Briefly: MIC test, broth two-fold serial dilution. The note with it: ATCC948, complete inhibition of growth, read-out: MIC (ppm) for each compound. The assay is classed as cell-based. As to the method: as §1
In assay [9] the test system is Rhorotorularubra (R. rubra) - ATCC 2503. Briefly: MIC test, broth two-fold serial dilution. Type of assay: cell-based. The note with it: complete inhibition of growth, read-out: MIC (ppm) for each compound. As to the method: as §1
Assay [10] relates to Sacharomyces cereresae (S. cer.) - ATCC 560. Briefly: MIC test, broth two-fold serial dilution. Type of assay: cell-based. Particulars: complete inhibition of growth, read-out: MIC (ppm) for each compound. As to the method:
as §1

Assay [11] deals with Staphylococcus aureus (S.aur) - ATCC 6538. As to the kind of experiment: MIC test, broth two-fold serial dilution. Type of assay: cell-based. The note with it: ATCC6538, complete inhibition of growth, read-out: MIC (ppm) for each compound. The protocol:
as §1

In another assay the test system is Fusarium roseum. Type of assay: cell-based. The note with it: in vitro, dose 25 ppm, relative to untreated check.
In assay [12] the test system is Piricularia oryzae. The assay is classed as cell-based. The note with it: in vitro, dose 25 ppm, relative to untreated check.
Another assay deals with Xanthomonas campestris. The assay is classed as cell-based. Particulars: in vitro, dose 25 ppm, relative to untreated check.
Another assay deals with Botrytis cinerea. The note with it: 25 ppm.
The subject of another assay is Cochliobolus sativus. The note with it: 25 ppm.
The test system of another assay is Phytophthora capsici. The note with it: 25 ppm.
The subject of a further assay is Pythium ultimum. Particulars: 25 ppm.
For the next assay, the system named is Rhizoctonia solani. Particulars: 25 ppm.
Assay [13] deals with Septoria nodorum. The note with it: 25 ppm.
The subject of assay [14] is Pseudoperonospora cubensis. As to the kind of experiment: In vivo plant disease control test, cucumber downy mildew (CDM).
The subject of assay [15] is Piricularia oryzae. Type of assay: in vivo. Particulars: Nato rice plants, sprayed at 200 ppm before inoculation, seven to eight days after inoculation.
Assay [16] concerns Septoria nodorum. As to the kind of experiment: In vivo plant disease control test, wheat glume blotch (WGB).
A further assay deals with Phytophthora infestans. Type of assay: in vivo. Particulars: Pixie tomato plants, sprayed at 200 ppm before inoculation, four days after inoculation.
The test system of assay [17] is Puccinia recondita (f. sp. tritici Races PKB and PLD). Briefly: In vivo plant disease control test, wheat leaf rust (WLR). Particulars: Fielder wheat, 200 ppm, scored after 10 days.
Assay [18] deals with Erysiphe graminis (f. sp. tritici). As to the kind of experiment: In vivo plant disease control test, wheat powdery mildew (WPM).

Structures are written as SMILES. Values after ≈ are worked out from the molar mass of the structure shown. Bounds are passed on as bounds.

One may read the MIC as the lowest concentration that inhibits growth of the organism. Take `O=c1oc2cc(Cl)ccc2n1CC#CBr` [Y=6-Cl, X=Br, 3-(3-bromopropargyl)-6-chloro-2-benzoxazolone]: the MIC was 32 µg/mL (≈ 112 µM) in assay [1]; 32 µg/mL (≈ 112 µM) in assay [2]; over 25 µg/mL in [3]; over 25 µg/mL in assay [4]; over 250 µg/mL in [5]; over 25 µg/mL in assay [6]. Further, the MIC in [7] is over 250 µg/mL; in assay [8] it was over 250 µg/mL; in assay [9], over 25 µg/mL; in [10] it was over 25 µg/mL; in assay [11], over 250 µg/mL. The “% DISEASE CONTROL FUS” value with Fusarium roseum turned out to be 0%. Further, the “% DISEASE CONTROL PIR” value in the assay on Piricularia oryzae [12] is 0%. The “% DISEASE CONTROL XAN” value in the assay with Xanthomonas campestris came to 0%. Besides, the “% DISEASE CONTROL BOC” value with Botrytis cinerea was determined as 50%. The “% DISEASE CONTROL HEL” value in the assay with Cochliobolus sativus is 50%. In the assay with Phytophthora capsici, the “% DISEASE CONTROL PHY” value came out at 0%. The “% DISEASE CONTROL PRU” value with Pythium ultimum is 50%. Further, the “% DISEASE CONTROL RMI” value in the assay on Rhizoctonia solani came to 0%. Also, the “% DISEASE CONTROL SEP” value with Septoria nodorum [13] amounted to 0%.
As to `O=c1oc2cc(Cl)ccc2n1CC#CI` [Y=6-Cl, X=I, 3-(3-iodopropargyl)-6-chloro-2-benzoxazolone], the minimum inhibitory concentration (MIC) in [1] is under 0.13 µg/mL; in assay [2] it was at most 1 µg/mL; in assay [3], at most 1 µg/mL; in assay [4], at most 1 µg/mL; in assay [5], over 250 µg/mL; in assay [6], at most 1 µg/mL. Besides, the MIC in assay [7] is over 250 µg/mL; in assay [8], 16 µg/mL (≈ 48 µM); in [9] it was at most 1 µg/mL; in assay [10], at most 5 µg/mL; in [11], 16 µg/mL (≈ 48 µM). Besides, the “% DISEASE CONTROL FUS” value with Fusarium roseum is given as 100%. The “% DISEASE CONTROL PIR” value with Piricularia oryzae [12] amounted to 100%. Also, in the assay on Xanthomonas campestris, the “% DISEASE CONTROL XAN” value worked out at 0%. In addition, the “% DISEASE CONTROL BOC” value in the assay on Botrytis cinerea was found to be 100%. Also, in the assay on Cochliobolus sativus, the “% DISEASE CONTROL HEL” value was 100%. For the same molecule, in the assay with Phytophthora capsici, the “% DISEASE CONTROL PHY” value is 100%. Besides, the “% DISEASE CONTROL PRU” value in the assay with Pythium ultimum is reported as 95%. Moreover, in the assay on Rhizoctonia solani, the “% DISEASE CONTROL RMI” value came out at 100%. Further, the “% DISEASE CONTROL SEP” value in the assay with Septoria nodorum [13] is reported as 100%.
On to `O=c1oc2ccccc2n1CC#CBr` [Y=H, X=Br, 3-(3-bromopropargyl)-2-benzoxazolone], for which the MIC in assay [1] is over 25 µg/mL; in assay [2] it was over 25 µg/mL; in assay [3] it was over 25 µg/mL; in assay [4] it was over 25 µg/mL; in [5], over 250 µg/mL; in assay [6], over 25 µg/mL. Moreover, the minimal inhibitory concentration (MIC) in assay [7] is over 250 µg/mL; in assay [8], over 250 µg/mL; in assay [9] it was over 25 µg/mL; in assay [10], over 25 µg/mL; in assay [11], over 250 µg/mL.
On to `O=c1oc2ccccc2n1CC#CI` [Y=H, X=I, 3-(3-iodopropargyl)-2-benzoxazolone], for which the MIC in assay [1] is under 0.13 µg/mL; in [2] it was 0.25 µg/mL (≈ 0.836 µM); in assay [3], at most 5 µg/mL; in assay [4], at most 0.2 µg/mL; in assay [5] it was over 250 µg/mL; in assay [6] it was at most 1 µg/mL. Moreover, the MIC in assay [7] was over 250 µg/mL; in [8] it was over 250 µg/mL; in assay [9] it was at most 1 µg/mL; in assay [10] it was at most 1 µg/mL; in [11], over 250 µg/mL. For the same molecule, in the assay with Fusarium roseum, the “% DISEASE CONTROL FUS” value is 100%. For the same molecule, in the assay on Piricularia oryzae [12], the “% DISEASE CONTROL PIR” value is 100%. Also, in the assay with Xanthomonas campestris, the “% DISEASE CONTROL XAN” value came out at 0%. Also, the “% DISEASE CONTROL CDM” value in [14] came out at 50%. Besides, the “% DISEASE CONTROL RB” value in the assay with Piricularia oryzae [15] is 95%. Further, in the assay on Septoria nodorum [16], the “% DISEASE CONTROL WGB” value stood at 0%. Also, the “% DISEASE CONTROL TLB” value in the assay with Phytophthora infestans is 0%. The “% DISEASE CONTROL WLR” value in assay [17] was 90%. The “% DISEASE CONTROL WPM” value in assay [18] is given as 90%. Also, the “% DISEASE CONTROL BOC” value in the assay with Botrytis cinerea came to 100%. In addition, the “% DISEASE CONTROL HEL” value in the assay on Cochliobolus sativus was found to be 100%. For the same molecule, the “% DISEASE CONTROL PHY” value in the assay on Phytophthora capsici is on record as 100%. In addition, the “% DISEASE CONTROL PRU” value in the assay on Pythium ultimum is 100%. Besides, in the assay with Rhizoctonia solani, the “% DISEASE CONTROL RMI” value is given as 95%. The “% DISEASE CONTROL SEP” value with Septoria nodorum [13] is given as 100%.
